Source: paper PMC5934630 (2018)

Key:
[1] = tested on: MA (DNA, aptamer) CTTACGACTCAGGCATTTTGCCGGGTAACGAAGTTACTGTCGTAAG; experiment: ITC; conditions: Na+ 20 mM, Mg2+ 0.5 mM
[2] = tested on: MA-L (DNA, aptamer) CAGAACTTACGACTCAGGCATTTTGCCGGGTAACGAAGTTACTGTCGTAAG; experiment: ITC; conditions: Na+ 20 mM, Mg2+ 0.5 mM

## CCCC(C(=O)c1ccc2c(c1)OCO2)N1CCCC1 (centres unmarked)
[1]
  KD: 6.1 ± 0.2 µM
[2]
  KD: 6.2 µM
